Measured values reported in patent US8772504B2, “Substituted benzoxazole, benzimidazole, oxazolopyridine and imidazopyridine derivatives as gamma secretase modulators” (Janssen Pharmaceuticals, Inc., priority 2009, dated 2014).
pIC50: −log10 of the molar value.

What was measured:
Assay type in all cases: cell-based
Aβtotal [1] = assay: Screening for γ-secretase-modulating activity, Method 2: Aβtotal Alphalisa on SKNBE2 cell supernatant; conditions: Method 2, Table 3c, SKNBE2 cells carrying APP 695 wild type, overnight incubation
Procedure: (§1) Screening was carried out using SKNBE2 cells carrying the APP 695—wild type, grown in Dulbecco's Modified Eagle's Medium/Nutrient mixture F-12 (DMEM/NUT-mix F-12) (HAM) provided by Invitrogen (cat no. 10371-029) containing 5% Serum/Fe supplemented with 1% non-essential amino acids, 1-glutamine 2 mM, Hepes 15 mM, penicillin 50 U/ml (units/ml) en streptomycin 50 μg/ml. Cells were grown to near confluency.
(§2) The screening was performed using a modification of the assay as described in Citron et al (1997) Nature Medicine 3: 67. Briefly, cells were plated in a 384-well plate at 10^4 cells/well in Ultraculture (Lonza, BE12-725F) supplemented with 1% glutamine (Invitrogen, 25030-024), 1% non-essential amino acid (NEAA), penicillin 50 U/ml en streptomycin 50 μg/ml in the presence of test compound at different test concentrations. The cell/compound mixture was incubated overnight at 37° C., 5% CO2. The next day the media were assayed by two sandwich immuno-assays, for Aβ42 and Aβtotal.
(§3) Aβtotal and Aβ42 concentrations were quantified in the cell supernatant using the Aphalisa technology (Perkin Elmer). Alphalisa is a sandwich assay using biotinylated antibody attached to streptavidin coated donorbeads and antibody conjugated to acceptor beads. In the presence of antigen, the beads come into close proximity. The excitation of the donor beads provokes the release of singlet oxygen molecules that trigger a cascade of energy transfer in the acceptor beads, resulting in light emission. To quantify the amount of Aβ42 in the cell supernatant, monoclonal antibody specific to the C-terminus of Aβ42 (JRF/cAβ42/26) was coupled to the receptor beads and biotinylated antibody specific to the N-terminus of Aβ (JRF/AβN/25) was used to react with the donor beads. To quantify the amount of Aβtotal in the cell supernatant, monoclonal antibody specific to the N-terminus of Aβ (JRF/AβN/25) was coupled to the receptor beads and biotinylated antibody specific to the mid region of Aβ (biotinylated 4G8) was used to react with the donor beads.
(§4) To obtain the values reported in Table 3c, the data were calculated as percentage of the maximum amount of amyloid Beta 42 measured in the absence of the test compound. The sigmoidal dose response curves were analyzed using non-linear regression analysis with percentage of the control plotted against the log concentration of the compound. A 4-parameter equation was used to determine the IC50.

Aβtotal [2] = assay: Screening for γ-secretase-modulating activity, Method 1: Aβtotal sandwich ELISA on SKNBE2 cell media; conditions: SKNBE2 cells carrying APP 695 wild type
Procedure: as §1, with “Gibco” for “Invitrogen”, “31330-38)” for “10371-029)”, “acids.” for “acids, 1-glutamine 2 mM, Hepes 15 mM, penicillin 50 U/ml (units/ml) en streptomycin 50 μg/ml.”
(§5) The screening was performed using the assay as described in Citron et al (1997) Nature Medicine 3: 67. Briefly, cells were plated in a 96-well plate at about 10^5 cells/ml one day prior to addition of compounds. Compounds were added to the cells in Ultraculture (Lonza, BE12-725F) supplemented with 1% glutamine (Invitrogen, 25030-024) for 18 hours. The media were assayed by two sandwich ELISAs, for Aβ42 and Aβtotal. Toxicity of the compounds was assayed by WST-1 cell proliferation reagent (Roche, 1 644 807) according to the manufacturer's protocol.
To quantify the amount of Aβtotal in the cell supernatant, samples and standards were added to a 6E10-coated plate. The plate was allowed to incubate overnight at 4° C. in order to allow formation of the antibody-amyloid complex. Following this incubation and subsequent wash steps a selective anti-Aβ-antibody conjugate (biotinylated 4G8) was added and incubated for a minimum of 1 hour in order to allow formation of the antibody-Amyloid-antibody-complex. After incubation and appropriate wash steps, a Streptavidine-Peroxidase-Conjugate was added, followed 30 minutes later by an addition of Quanta Blu fluorogenic peroxidase substrate according to the manufacturer's instructions (Pierce Corp., Rockford, Ill.).
(§6) To obtain the values reported in Table 3a, the sigmoidal dose response curves were analysed by computerised curve-fitting, with percent of inhibition plotted against compound concentration. A 4-parameter equation (model 205) in XLfit was used to determine the IC50. The top and the bottom of the curve were fixed to 100 and 0, respectively, and the hill slope was fixed to 1. The IC50 represents the concentration of a compound that is required for inhibiting a biological effect by 50% (Here, it is the concentration where Aβ peptide level is reduced by 50%).
as §4, with “3b,” for “3c,”, “IC50. The values reported in Table 3b are averaged IC50 values.” for “IC50.”

Aβ42 [3] = assay: Screening for γ-secretase-modulating activity, Method 1: Aβ42 sandwich ELISA on SKNBE2 cell media; conditions: SKNBE2 cells carrying APP 695 wild type
Procedure: as §1, with “Gibco” for “Invitrogen”, “31330-38)” for “10371-029)”, “acids.” for “acids, 1-glutamine 2 mM, Hepes 15 mM, penicillin 50 U/ml (units/ml) en streptomycin 50 μg/ml.”
as §5
To quantify the amount of Aβ42 in the cell supernatant, commercially available Enzyme-Linked-Immunosorbent-Assay (ELISA) kits were used (Innotest® β-Amyloid(1-42), Innogenetics N.V., Ghent, Belgium). The Aβ42 ELISA was performed essentially according to the manufacturer's protocol. Briefly, the standards (dilutions of synthetic Aβ1-42) were prepared in polypropylene Eppendorf with final concentrations of 8000 down to 3.9 pg/ml (1/2 dilution step). Samples, standards and blanks (100 μl) were added to the anti-Aβ42-coated plate supplied with the kit (the capture antibody selectively recognizes the C-terminal end of the antigen). The plate was allowed to incubate 3 h at 25° C. in order to allow formation of the antibody-amyloid complex. Following this incubation and subsequent wash steps a selective anti-Aβ-antibody conjugate (biotinylated 3D6) was added and incubated for a minimum of 1 hour in order to allow formation of the antibody-Amyloid-antibody-complex. After incubation and appropriate wash steps, a Streptavidine-Peroxidase-Conjugate was added, followed 30 minutes later by an addition of 3,3′,5,5′-tetramethylbenzidine (TMB)/peroxide mixture, resulting in the conversion of the substrate into a coloured product. This reaction was stopped by the addition of sulfuric acid (0.9 N) and the colour intensity was measured by means of photometry with an ELISA-reader with a 450 nm filter.
as §6
as §4, with “3b,” for “3c,”, “IC50. The values reported in Table 3b are averaged IC50 values.” for “IC50.”

Aβ42 [4] = assay: Screening for γ-secretase-modulating activity, Method 2: Aβ42 Alphalisa on SKNBE2 cell supernatant; conditions: Method 2, Table 3c, SKNBE2 cells carrying APP 695 wild type, overnight incubation
Procedure: as §1, §2, §3, §4

[5] = Homo sapiens, Table 3a, 18 hours, XLfit, top/bottom fixed to 100 and 0, hill slope 1
[6] = Homo sapiens, Table 3b, non-linear regression of % of control, averaged IC50 values
[7] = Table 3a, 18 hours, XLfit, top/bottom fixed to 100 and 0, hill slope 1
[8] = Table 3b, non-linear regression of % of control, averaged IC50 values

Compound	pIC50 (Aβtotal [1]; Homo sapiens)	pIC50 (Aβtotal [2]; [5])	pIC50 (Aβtotal [2]; [6])	pIC50 (Aβ42 [3]; [5])	pIC50 (Aβ42 [3]; [6])	pIC50 (Aβ42 [4]; Homo sapiens)	pIC50 (Aβtotal [1])	pIC50 (Aβtotal [2]; [7])	pIC50 (Aβtotal [2]; [8])	pIC50 (Aβ42 [3]; [7])	pIC50 (Aβ42 [3]; [8])	pIC50 (Aβ42 [4])
COc1cc(Nc2cccc3c2nc(-c2ccc(F)cc2)n3C(C)C)ccc1-n1cnc(C)c1 [Compound 2]	5.03	< 6.00	< 6.00	7.92	7.92	8.05	–	–	–	–	–	–
COc1cc(Nc2cccc3c2nc(CC2CCNCC2)n3C)ccc1-n1cnc(C)c1 [Compound 9]	< 5.52	< 5.52	< 5.52	6.22	6.22	< 5.52	–	–	–	–	–	–
Cc1ncn(-c2ccc(Nc3cccc4c3nc(C)n4C(C)C)cc2)n1 [Compound 20]	–	–	–	–	–	–	< 5.52	< 5.52	< 5.52	< 5.52	< 5.52	< 5.52
COc1cc(Nc2nccc3c2nc(CC2CC2)n3C)ccc1-n1ncnc1C [Compound 101]	–	–	–	–	–	–	< 5.00	–	–	< 5.52	< 5.52	5.23
Cc1ncn(-c2ccc(Nc3cccc4c3nc(-c3ccc(F)cc3)n4C)cc2)n1 [Compound 103]	–	–	–	–	–	–	< 5.00	–	–	7.06	7.05	6.99
COc1cc(Nc2cccc3c2nc(C2CCOCC2)n3C(C)C)ccc1-n1cnc(C)n1 [Compound 120]	–	–	–	–	–	–	< 5.00	–	–	–	< 5.52	5.01
Cc1ncn(-c2ccc(Nc3nccc4c3nc(-c3ccc(F)cc3F)n4C)c(F)c2)n1 [Compound 129]	–	–	–	–	–	–	< 5.00	–	–	–	< 5.52	< 5.00

Now from value to compound:

pIC50 (Aβtotal [1]; Homo sapiens)	pIC50 (Aβtotal [2]; [5])	pIC50 (Aβtotal [2]; [6])	pIC50 (Aβ42 [3]; [5])	pIC50 (Aβ42 [3]; [6])	pIC50 (Aβ42 [4]; Homo sapiens)	pIC50 (Aβtotal [1])	pIC50 (Aβtotal [2]; [7])	pIC50 (Aβtotal [2]; [8])	pIC50 (Aβ42 [3]; [7])	pIC50 (Aβ42 [3]; [8])	pIC50 (Aβ42 [4])	Compound
–	–	–	–	–	–	< 5.00	< 5.52	< 5.52	> 6.96	> 6.96	6.82	COc1cc(Nc2cccc3c2nc(C)n3Cc2ccccc2)ccc1-n1cnc(C)c1 [Compound 22]
–	–	–	–	–	–	< 5.52	< 5.00	< 5.00	5.72	5.73	< 5.52	Cc1ncn(-c2ccc(Nc3cccc4c3nc(C)n4Cc3ccccc3)cc2)n1 [Compound 23]
–	–	–	–	–	–	< 5.00	< 5.52	< 5.52	> 6.96	> 6.96	6.61	COc1cc(Nc2cccc3c2nc(SCC(C)C)n3C)ccc1-n1cnc(C)c1 [Compound 33]
–	–	–	–	–	–	< 5.00	< 6.00	< 5.00	7.62	7.66	7.22	CCn1c(CCC(F)(F)F)nc2c(Nc3ccc(-n4cnc(C)c4)c(OC)c3)cccc21 [Compound 35]
–	–	–	–	–	–	< 5.52	< 5.52	< 5.52	5.71	5.71	< 5.52	COc1cc(Nc2cccc3oc(C4CCN(C)CC4)nc23)ccc1-n1cnc(C)c1 [Compound 40]
–	–	–	–	–	–	< 5.00	< 5.52	< 5.52	< 5.52	< 5.52	5.12	COc1cc(Nc2cccc3oc(C4CCN(C(C)=O)CC4)nc23)ccc1-n1cnc(C)c1 [Compound 41]
–	–	–	–	–	–	< 5.00	< 6.00	< 5.52	7.70	7.55	7.89	COc1cccc(-c2nc3c(Nc4ccc(-n5cnc(C)c5)c(OC)c4)cccc3n2C)c1 [Compound 49]
–	–	–	–	–	–	< 5.00	< 5.52	< 5.52	7.28	7.24	7.10	COc1cccc(-c2nc3c(Nc4ccc(-n5cnc(C)n5)cc4)cccc3n2C(C)C)c1 [Compound 51]
–	–	–	–	–	–	< 5.52	4.58	< 4.52	5.14	5.11	< 5.52	CCOc1cc(C)c(-c2nc3c(Nc4ccc(-n5cnc(C)n5)c(OC)c4)cccc3o2)cc1C(C)C [Compound 59]
–	–	–	–	–	–	< 5.00	–	–	6.97	6.93	6.38	Cc1ncn(-c2ccc(Nc3cc(C(F)(F)F)cc4c3nc(-c3ccc(F)cc3)n4C)cc2)n1 [Compound 69]
–	–	–	–	–	–	5.18	–	–	–	8.00	8.40	COc1nc(Nc2cccc3c2nc(-c2ccc(F)cc2)n3C(C)C)ccc1-n1cnc(C)c1 [Compound 116]
